Test results taken from ChEMBL document CHEMBL4118132, “Novel 5-methyl-2-phenylphenanthridium derivatives as FtsZ-targeting antibacterial agents from structural simplification of natural product sanguinarine” (2018).
The source made the active and inactive calls. No cut-off for these calls is given here.

What was measured:
[1] = tested on: Bacillus pumilus; test: Antibacterial activity against penicillin-susceptible Bacillus pumilus ATCC 63202 after 24 hrs by broth microdilution method; format: functional; conditions: ATCC 63202, 24 h
[2] = tested on: Staphylococcus aureus; test: Bactericidal activity against penicillin-susceptible Staphylococcus aureus ATCC 25923 assessed as bacterial levels at 16 ug/ml after 1 hr by time-kill assay (reference value: 6.13 to 6.14 log10CFU/ml); format: functional
[3] = tested on: Staphylococcus aureus; test: Bactericidal activity against penicillin-susceptible Staphylococcus aureus ATCC 25923 assessed as bacterial levels at 32 ug/ml after 1 hr by time-kill assay (reference value: 6.13 to 6.14 log10CFU/ml); format: functional
[4] = tested on: Pseudomonas aeruginosa; test: Antibacterial activity against penicillin-susceptible Pseudomonas aeruginosa ATCC 27853 after 24 hrs by broth microdilution method; format: functional; conditions: ATCC 27853, 24 h
[5] = tested on: Staphylococcus aureus; test: Bactericidal activity against penicillin-susceptible Staphylococcus aureus ATCC 25923 assessed as bacterial levels at 16 ug/ml after 4 hrs by time-kill assay (reference value: 6.13 to 6.71 log10CFU/ml); format: functional
[6] = tested on: Staphylococcus aureus; test: Potency index, ratio of oxacillin sodium MIC to test compound MIC for methicillin-resistant Staphylococcus aureus ATCC 43300; format: functional
[7] = tested on: Staphylococcus aureus; test: Antibacterial activity against penicillin-susceptible Staphylococcus aureus ATCC 25923 after 24 hrs by broth microdilution method; format: functional; conditions: ATCC 25923, 24 h
[8] = tested on: Staphylococcus aureus; test: Bactericidal activity against penicillin-susceptible Staphylococcus aureus ATCC 25923 assessed as bacterial levels at 32 ug/ml after 24 hrs by time-kill assay (reference value: 6.13 to 8.34 log10CFU/ml); format: functional
[9] = tested on: Escherichia coli; test: Antibacterial activity against penicillin-susceptible Escherichia coli ATCC 25922 after 24 hrs by broth microdilution method; format: functional; conditions: ATCC 25922, 24 h
[10] = tested on: Staphylococcus aureus; test: Antibacterial activity against penicillin-resistant Staphylococcus aureus clinical isolate after 24 hrs by broth microdilution method; format: functional
[11] = tested on: Streptococcus pyogenes; test: Potency index, ratio of ciprofloxacin MIC to test compound MIC for penicillin-resistant Streptococcus pyogenes; format: functional
[12] = tested on: Staphylococcus epidermidis; test: Antibacterial activity against penicillin-resistant Staphylococcus epidermidis clinical isolate after 24 hrs by broth microdilution method; format: functional
[13] = tested on: Streptococcus pyogenes; test: Potency index, ratio of oxacillin sodium MIC to test compound MIC for penicillin-resistant Streptococcus pyogenes; format: functional
[14] = molecular target: T1, Cell division protein FtsZ (Bacillus subtilis) (UniProt A5Z1V5); test: Inhibition of FtsZ in penicillin-susceptible Bacillus subtilis ATCC 9372 assessed as increase in length of bacteria at 0.125 ug/ml after 5 hrs by phase-contrast light microscopic method
T1 sequence (whole entry): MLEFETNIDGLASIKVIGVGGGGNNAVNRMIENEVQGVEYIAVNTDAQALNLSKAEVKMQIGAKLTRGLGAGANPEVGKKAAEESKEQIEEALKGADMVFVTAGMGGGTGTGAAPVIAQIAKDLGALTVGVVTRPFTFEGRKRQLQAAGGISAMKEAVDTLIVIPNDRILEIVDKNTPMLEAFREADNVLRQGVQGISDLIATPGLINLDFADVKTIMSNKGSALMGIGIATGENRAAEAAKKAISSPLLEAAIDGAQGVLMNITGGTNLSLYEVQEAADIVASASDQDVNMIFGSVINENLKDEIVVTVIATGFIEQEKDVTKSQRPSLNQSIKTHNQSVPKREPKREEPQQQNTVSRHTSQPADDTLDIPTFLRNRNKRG

[15] = tested on: Staphylococcus epidermidis; test: Potency index, ratio of oxacillin sodium MIC to test compound MIC for penicillin-resistant Staphylococcus epidermidis clinical isolate; format: functional
[16] = tested on: Staphylococcus aureus; test: Bactericidal activity against penicillin-susceptible Staphylococcus aureus ATCC 25923 assessed as bacterial levels at 8 ug/ml after 12 hrs by time-kill assay (reference value: 6.13 to 8.01 log10CFU/ml); format: functional
[17] = tested on: Staphylococcus aureus; test: Potency index, ratio of oxacillin sodium MIC to test compound MIC for penicillin-resistant Staphylococcus aureus clinical isolate; format: functional
[18] = tested on: Bacillus subtilis; test: Potency index, ratio of oxacillin sodium MIC to test compound MIC for penicillin-susceptible Bacillus subtilis ATCC 9372; format: functional
[19] = tested on: Staphylococcus aureus; test: Potency index, ratio of ciprofloxacin MIC to test compound MIC for methicillin-resistant Staphylococcus aureus ATCC 43300; format: functional
[20] = tested on: Staphylococcus aureus; test: Bactericidal activity against penicillin-susceptible Staphylococcus aureus ATCC 25923 assessed as bacterial levels at 32 ug/ml after 4 hrs by time-kill assay (reference value: 6.13 to 6.71 log10CFU/ml); format: functional
[21] = tested on: Staphylococcus aureus; test: Bactericidal activity against penicillin-susceptible Staphylococcus aureus ATCC 25923 after 24 hrs by flat colony counting method; format: functional; conditions: ATCC 25923, 24 h
[22] = tested on: Staphylococcus aureus; test: Antibacterial activity against methicillin-resistant Staphylococcus aureus ATCC 43300 after 24 hrs by broth microdilution method; format: functional; conditions: ATCC 43300, 24 h
[23] = tested on: Staphylococcus aureus; test: Bactericidal activity against penicillin-susceptible Staphylococcus aureus ATCC 25923 assessed as bacterial levels at 32 ug/ml after 2 hrs by time-kill assay (reference value: 6.13 to 6.17 log10CFU/ml); format: functional
[24] = tested on: Streptococcus pyogenes; test: Antibacterial activity against penicillin-susceptible Streptococcus pyogenes after 24 hrs by broth microdilution method; format: functional
[25] = molecular target: T2, Cell division protein FtsZ (Staphylococcus aureus) (UniProt P0A031); test: Inhibition of FtsZ in penicillin-susceptible Staphylococcus aureus ATCC 25923 assessed as increase in length of bacteria at 0.125 ug/ml after 5 hrs by phase-contrast light microscopic method
T2 sequence (whole entry): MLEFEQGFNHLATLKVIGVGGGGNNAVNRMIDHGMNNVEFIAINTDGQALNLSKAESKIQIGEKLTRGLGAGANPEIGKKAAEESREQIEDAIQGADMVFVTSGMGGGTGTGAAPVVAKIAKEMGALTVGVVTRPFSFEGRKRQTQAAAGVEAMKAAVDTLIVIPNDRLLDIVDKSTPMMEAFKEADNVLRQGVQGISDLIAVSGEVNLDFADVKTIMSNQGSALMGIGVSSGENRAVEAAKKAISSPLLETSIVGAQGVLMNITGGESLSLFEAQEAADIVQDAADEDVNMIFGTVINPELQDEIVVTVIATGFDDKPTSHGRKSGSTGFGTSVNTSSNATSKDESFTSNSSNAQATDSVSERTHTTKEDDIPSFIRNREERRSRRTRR

[26] = tested on: Staphylococcus aureus; test: Bactericidal activity against penicillin-susceptible Staphylococcus aureus ATCC 25923 assessed as bacterial levels at 16 ug/ml after 24 hrs by time-kill assay (reference value: 6.13 to 8.34 log10CFU/ml); format: functional
[27] = tested on: Staphylococcus aureus; test: Bactericidal activity against penicillin-susceptible Staphylococcus aureus ATCC 25923 assessed as bacterial levels at 16 ug/ml after 12 hrs by time-kill assay (reference value: 6.13 to 8.01 log10CFU/ml); format: functional
[28] = tested on: Staphylococcus aureus; test: Bactericidal activity against penicillin-susceptible Staphylococcus aureus ATCC 25923 assessed as bacterial levels at 8 ug/ml after 1 hr by time-kill assay (reference value: 6.13 to 6.14 log10CFU/ml); format: functional

`Cc1cc(-c2ccc(C(F)(F)F)cc2)cc2c3ccccc3c[n+](C)c12.[Cl-]` was tested. Which MIC [1] did it give?
Its MIC is 0.06 µg/mL.

And the Activity [2]?
Its Activity is 5.89 log10CFU/ml.

What about the Activity [3] of the same compound?
Its Activity is 5.57 log10CFU/ml.

And the MIC [4]?
The MIC was over 64 µg/mL.

What about the Activity [5] of the same compound?
The Activity was 5.75 log10CFU/ml.

What about the Ratio [6] of the same compound?
Its Ratio is 256.

What about the MIC [7] of the same compound?
The MIC was 0.06 µg/mL.

What about the Activity [8] of the same compound?
Its Activity is 0 log10CFU/ml.

What about the MIC [9] of the same compound?
Its MIC is over 64 µg/mL.

And the MIC [10]?
Its MIC is 0.25 µg/mL.

And the Ratio [11]?
The Ratio was 32.

What about the MIC [12] of the same compound?
Its MIC is 0.125 µg/mL.

And the Ratio [13]?
Its Ratio is 32.

And the inhibition [14]?
The inhibition was “Active”.

What about the Ratio [15] of the same compound?
Its Ratio is 512.

And the Activity [16]?
The Activity was 5.78 log10CFU/ml.

And the Ratio [17]?
Its Ratio is 256.

What about the Ratio [18] of the same compound?
The Ratio was 67.

And the Ratio [19]?
The Ratio was 64.

What about the Activity [20] of the same compound?
The Activity was 4 log10CFU/ml.

And the MBC [21]?
Its MBC is 16 µg/mL.

And the MIC [22]?
The MIC was 0.25 µg/mL.

And the Activity [23]?
Its Activity is 5.18 log10CFU/ml.

What about the MIC [24] of the same compound?
The MIC was 1 µg/mL.

What about the inhibition [25] of the same compound?
Its inhibition is “Active”.

And the Activity [26]?
The Activity was 0 log10CFU/ml.

And the Activity [27]?
The Activity was 4 log10CFU/ml.

And the Activity [28]?
Its Activity is 6.05 log10CFU/ml.
